One may read the IC50 as the concentration needed to halve the response being measured. What is called inhibition is the drop in the measured response relative to a control, in per cent. In general, EC50 refers to the midpoint of the concentration-response curve. In general, % inhibition refers to how much of the control response was suppressed. A lower % inhibition goes with a weak effect.

Results on 5 molecules are retold here after publication PMC8550792, “Evolution of kinase polypharmacology across HSP90 drug discovery” (Cell Chemical Biology, 2021).

Several values for one entry are separate records, joined by “and”; a condition that tells them apart may be missing. Equal values may be shown once. Read-outs that look alike come from different tables or passages of the source. A value given as a limit tells only on which side of the number the result lay.

Experiment [1] has as its target T1, 382 unique human kinases (Homo sapiens, UniProt O00444).
T1 construct: purchased Reaction Biology (HotSpot contract assay)
T1 sequence (O00444 1-970): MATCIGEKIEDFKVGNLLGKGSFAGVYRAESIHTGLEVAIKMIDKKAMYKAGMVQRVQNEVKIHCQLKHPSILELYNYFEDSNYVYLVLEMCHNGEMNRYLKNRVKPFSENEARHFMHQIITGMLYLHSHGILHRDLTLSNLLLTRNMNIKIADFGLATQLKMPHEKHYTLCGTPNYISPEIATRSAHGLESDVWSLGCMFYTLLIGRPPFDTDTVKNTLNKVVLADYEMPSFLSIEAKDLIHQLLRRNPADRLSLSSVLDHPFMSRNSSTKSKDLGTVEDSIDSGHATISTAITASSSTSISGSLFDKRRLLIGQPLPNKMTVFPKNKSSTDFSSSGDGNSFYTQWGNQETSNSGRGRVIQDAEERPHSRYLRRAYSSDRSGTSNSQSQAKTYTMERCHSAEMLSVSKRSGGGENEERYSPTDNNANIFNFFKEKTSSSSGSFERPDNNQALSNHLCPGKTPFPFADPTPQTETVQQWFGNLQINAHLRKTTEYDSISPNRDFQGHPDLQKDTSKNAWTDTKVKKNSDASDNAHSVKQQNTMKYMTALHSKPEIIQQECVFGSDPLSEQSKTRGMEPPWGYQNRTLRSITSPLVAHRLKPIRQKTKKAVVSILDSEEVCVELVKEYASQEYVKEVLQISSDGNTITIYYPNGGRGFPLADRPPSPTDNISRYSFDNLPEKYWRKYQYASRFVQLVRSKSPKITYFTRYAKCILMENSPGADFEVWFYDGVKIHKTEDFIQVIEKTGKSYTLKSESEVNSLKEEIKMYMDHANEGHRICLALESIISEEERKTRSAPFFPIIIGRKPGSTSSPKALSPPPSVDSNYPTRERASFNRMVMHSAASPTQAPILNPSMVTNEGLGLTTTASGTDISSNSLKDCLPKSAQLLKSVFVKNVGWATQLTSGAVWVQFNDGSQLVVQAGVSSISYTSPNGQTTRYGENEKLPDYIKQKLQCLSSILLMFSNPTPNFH
Kind of experiment: biochemical. The class given is biochemical. Particulars: PLK4/SAK, 10 uM; for remaining activity at 10 µM: read-out: % Enzyme Activity (relative to DMSO controls).

The target of experiment [2] is T2, 382 unique human kinases (Homo sapiens, UniProt P10721, T670I).
T2 construct: purchased Reaction Biology (HotSpot contract assay)
Kind of experiment: biochemical. It is filed as biochemical. Particulars: c-Kit (T670I); 10 uM; read-out: % Enzyme Activity (relative to DMSO controls).

Experiment [3] has as its target T3, 382 unique human kinases (Homo sapiens, UniProt P21802, E565G).
T3 construct: purchased Reaction Biology (HotSpot contract assay)
Kind of experiment: biochemical. The class given is biochemical. The settings on record: kinase FGFR2 (E565G), compound 10 uM; for remaining activity at 10 µM: read-out: % Enzyme Activity (relative to DMSO controls).

In the next experiment the target is T4, TRKA-TFG (TRK-T3) (Homo sapiens, UniProt P04629+Q92734).
T4 construct: purchased Reaction Biology (HotSpot contract assay)
T4 sequence (Q92734+P04629 fused): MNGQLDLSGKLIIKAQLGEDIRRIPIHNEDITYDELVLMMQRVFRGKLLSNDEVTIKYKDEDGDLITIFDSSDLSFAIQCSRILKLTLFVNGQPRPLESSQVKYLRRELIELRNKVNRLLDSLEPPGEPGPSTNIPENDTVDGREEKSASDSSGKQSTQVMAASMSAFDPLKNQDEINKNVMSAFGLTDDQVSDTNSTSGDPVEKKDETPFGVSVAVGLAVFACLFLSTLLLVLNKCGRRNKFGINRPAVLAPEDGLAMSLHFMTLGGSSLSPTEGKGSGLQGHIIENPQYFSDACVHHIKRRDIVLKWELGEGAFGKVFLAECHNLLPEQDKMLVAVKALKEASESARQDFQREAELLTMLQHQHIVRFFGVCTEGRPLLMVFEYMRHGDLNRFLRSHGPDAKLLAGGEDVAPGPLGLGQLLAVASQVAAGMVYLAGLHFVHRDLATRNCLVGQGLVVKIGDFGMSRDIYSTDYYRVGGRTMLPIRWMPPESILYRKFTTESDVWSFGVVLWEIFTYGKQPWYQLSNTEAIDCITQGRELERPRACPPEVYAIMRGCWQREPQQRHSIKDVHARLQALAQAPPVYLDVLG
Kind of experiment: HotSpot in vitro kinase radiometric assay. The class given is biochemical.

Experiment [4] deals with T5, 382 unique human kinases (Homo sapiens, UniProt P42681).
T5 construct: purchased Reaction Biology (HotSpot contract assay)
T5 sequence (P42681 1-527): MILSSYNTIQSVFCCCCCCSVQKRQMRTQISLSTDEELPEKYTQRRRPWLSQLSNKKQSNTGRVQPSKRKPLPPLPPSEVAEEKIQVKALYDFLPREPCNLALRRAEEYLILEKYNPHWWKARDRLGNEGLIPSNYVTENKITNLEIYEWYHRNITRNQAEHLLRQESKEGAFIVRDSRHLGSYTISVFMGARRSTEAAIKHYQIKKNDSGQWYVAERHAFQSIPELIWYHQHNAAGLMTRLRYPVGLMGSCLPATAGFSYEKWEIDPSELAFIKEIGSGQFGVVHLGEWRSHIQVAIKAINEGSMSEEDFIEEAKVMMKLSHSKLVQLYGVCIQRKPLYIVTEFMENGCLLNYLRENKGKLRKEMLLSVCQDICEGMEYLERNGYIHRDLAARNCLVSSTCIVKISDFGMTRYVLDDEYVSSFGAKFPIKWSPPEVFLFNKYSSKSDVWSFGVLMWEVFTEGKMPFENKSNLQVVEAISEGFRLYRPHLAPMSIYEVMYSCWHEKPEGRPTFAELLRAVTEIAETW
Kind of experiment: biochemical. It is filed as biochemical. Particulars: TXK, [ATP] 30 µM, compound 10 uM; for remaining activity at 10 µM: read-out: % Enzyme Activity (relative to DMSO controls).

The next experiment concerns the target ABL2 (Homo sapiens, UniProt P42684). Kind of experiment: NanoBRET intracellular target engagement. On the technique in general: BRET reads energy transfer from a luciferase to a nearby fluorophore.
Experiment [5] deals with T6, 382 unique human kinases (Homo sapiens, UniProt O14578).
T6 construct: purchased Reaction Biology (HotSpot contract assay)
Kind of experiment: biochemical. The settings on record: STK21/CIT, 10 uM. It is filed as biochemical.

For experiment [6], the target named is T7, 382 unique human kinases (Homo sapiens, UniProt P10721, D816I).
T7 construct: purchased Reaction Biology (HotSpot contract assay)
Kind of experiment: biochemical. The settings on record: c-Kit (D816I), 10 uM. It is filed as biochemical.

The target in experiment [7] is T8, 382 unique human kinases (Homo sapiens, UniProt P04626, V777L).
T8 construct: purchased Reaction Biology (HotSpot contract assay)
Kind of experiment: biochemical. It is filed as biochemical. The settings on record: ERBB2 (V777L), compound at 10 uM, duplicate values.

A further experiment has as its target T9, PEAK1 (Homo sapiens, UniProt Q9H792).
T9 construct: purchased Reaction Biology (HotSpot contract assay)
Kind of experiment: HotSpot in vitro kinase radiometric assay. The class given is biochemical. The settings on record: for inhibition at 10 µM: read-out: % inhibition at 10 uM: PEAK1, 10 μM.

In a further experiment the target is T10, LCK (Homo sapiens, UniProt P06239).
T10 construct: purchased Reaction Biology (HotSpot contract assay)
T10 sequence (P06239 whole entry): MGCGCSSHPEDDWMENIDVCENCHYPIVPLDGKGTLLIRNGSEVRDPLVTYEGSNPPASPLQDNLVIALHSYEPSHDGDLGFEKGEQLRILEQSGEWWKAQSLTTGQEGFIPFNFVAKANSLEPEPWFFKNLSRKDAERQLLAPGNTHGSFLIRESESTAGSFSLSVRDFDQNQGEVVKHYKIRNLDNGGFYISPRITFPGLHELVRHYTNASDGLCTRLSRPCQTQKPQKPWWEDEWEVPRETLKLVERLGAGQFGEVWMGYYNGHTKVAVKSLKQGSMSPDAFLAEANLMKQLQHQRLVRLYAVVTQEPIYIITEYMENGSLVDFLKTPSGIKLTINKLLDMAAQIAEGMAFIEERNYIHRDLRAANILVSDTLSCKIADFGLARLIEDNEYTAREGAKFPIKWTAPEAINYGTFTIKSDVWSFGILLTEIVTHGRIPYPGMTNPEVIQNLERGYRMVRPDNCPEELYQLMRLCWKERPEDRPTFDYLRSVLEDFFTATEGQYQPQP
Kind of experiment: HotSpot in vitro kinase radiometric assay. It is filed as biochemical. Particulars: for inhibition at 10 µM: read-out: % inhibition at 10 uM: LCK, Fig 6C median ± standard deviation (n = 2).

The target of experiment [8] is T11, 382 unique human kinases (Homo sapiens, UniProt Q96S53).
T11 construct: purchased Reaction Biology (HotSpot contract assay)
T11 sequence (Q96S53 whole entry): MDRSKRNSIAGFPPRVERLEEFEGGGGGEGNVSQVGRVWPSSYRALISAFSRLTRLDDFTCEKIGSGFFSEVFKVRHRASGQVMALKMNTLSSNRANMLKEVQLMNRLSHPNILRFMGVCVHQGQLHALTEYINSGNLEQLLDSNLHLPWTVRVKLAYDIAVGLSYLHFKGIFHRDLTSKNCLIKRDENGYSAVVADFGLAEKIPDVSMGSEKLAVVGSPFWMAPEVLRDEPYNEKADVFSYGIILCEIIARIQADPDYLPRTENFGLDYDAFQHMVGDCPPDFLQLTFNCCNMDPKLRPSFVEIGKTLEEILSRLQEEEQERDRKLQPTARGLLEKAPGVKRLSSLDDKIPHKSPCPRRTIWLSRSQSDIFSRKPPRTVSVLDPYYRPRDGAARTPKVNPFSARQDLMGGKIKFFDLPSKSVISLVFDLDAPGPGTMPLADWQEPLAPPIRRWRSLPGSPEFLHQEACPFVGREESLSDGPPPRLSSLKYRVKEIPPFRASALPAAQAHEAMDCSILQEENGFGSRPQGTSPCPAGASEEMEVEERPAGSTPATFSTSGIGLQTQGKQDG
Kind of experiment: biochemical. It is filed as biochemical. Particulars: TESK2, 10 uM.

The target in experiment [9] is T12, 382 unique human kinases (Homo sapiens, UniProt P00533, C797A).
T12 construct: purchased Reaction Biology (HotSpot contract assay)
Kind of experiment: biochemical. The class given is biochemical. The settings on record: EGFR (C797A), 10 uM.

Experiment [10] deals with T13, 382 unique human kinases (Homo sapiens, UniProt P15056, G464V).
T13 construct: purchased Reaction Biology (HotSpot contract assay)
Kind of experiment: biochemical. The settings on record: BRAF (G464V), 10 uM. It is filed as biochemical.

In the next experiment the target is T14, FGR (Homo sapiens, UniProt P09769).
T14 construct: purchased Reaction Biology (HotSpot contract assay)
T14 sequence (P09769 whole entry): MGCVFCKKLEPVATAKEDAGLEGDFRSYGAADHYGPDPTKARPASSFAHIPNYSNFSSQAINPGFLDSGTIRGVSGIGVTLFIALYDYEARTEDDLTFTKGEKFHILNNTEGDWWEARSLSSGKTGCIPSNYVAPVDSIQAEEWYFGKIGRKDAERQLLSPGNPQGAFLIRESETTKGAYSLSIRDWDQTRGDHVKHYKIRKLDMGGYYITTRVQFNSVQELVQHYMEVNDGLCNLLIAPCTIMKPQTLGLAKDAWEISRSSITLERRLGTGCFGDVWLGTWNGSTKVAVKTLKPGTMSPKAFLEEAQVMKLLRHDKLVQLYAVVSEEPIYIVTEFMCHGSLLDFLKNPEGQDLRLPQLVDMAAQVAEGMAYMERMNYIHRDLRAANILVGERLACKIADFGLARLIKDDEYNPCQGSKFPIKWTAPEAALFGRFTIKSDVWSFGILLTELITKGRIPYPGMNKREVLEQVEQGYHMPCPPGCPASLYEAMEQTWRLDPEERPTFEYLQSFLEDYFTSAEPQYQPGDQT
Kind of experiment: HotSpot in vitro kinase radiometric assay. The class given is biochemical. The settings on record: for inhibition at 10 µM: read-out: % inhibition at 10 uM: FGR, Fig 6C median ± standard deviation (n = 2).

[11] abbreviates: radiometric 10-point concentration-response, n = 3, read-out: in vitro biochemical IC50, TRKA-TFG.
[12] abbreviates: read-out: % Enzyme Activity (relative to DMSO controls).
Where [13] appears, read: Fig 6C median ± standard deviation (n = 2).

T3 sequence (P21802 22-821 E565G): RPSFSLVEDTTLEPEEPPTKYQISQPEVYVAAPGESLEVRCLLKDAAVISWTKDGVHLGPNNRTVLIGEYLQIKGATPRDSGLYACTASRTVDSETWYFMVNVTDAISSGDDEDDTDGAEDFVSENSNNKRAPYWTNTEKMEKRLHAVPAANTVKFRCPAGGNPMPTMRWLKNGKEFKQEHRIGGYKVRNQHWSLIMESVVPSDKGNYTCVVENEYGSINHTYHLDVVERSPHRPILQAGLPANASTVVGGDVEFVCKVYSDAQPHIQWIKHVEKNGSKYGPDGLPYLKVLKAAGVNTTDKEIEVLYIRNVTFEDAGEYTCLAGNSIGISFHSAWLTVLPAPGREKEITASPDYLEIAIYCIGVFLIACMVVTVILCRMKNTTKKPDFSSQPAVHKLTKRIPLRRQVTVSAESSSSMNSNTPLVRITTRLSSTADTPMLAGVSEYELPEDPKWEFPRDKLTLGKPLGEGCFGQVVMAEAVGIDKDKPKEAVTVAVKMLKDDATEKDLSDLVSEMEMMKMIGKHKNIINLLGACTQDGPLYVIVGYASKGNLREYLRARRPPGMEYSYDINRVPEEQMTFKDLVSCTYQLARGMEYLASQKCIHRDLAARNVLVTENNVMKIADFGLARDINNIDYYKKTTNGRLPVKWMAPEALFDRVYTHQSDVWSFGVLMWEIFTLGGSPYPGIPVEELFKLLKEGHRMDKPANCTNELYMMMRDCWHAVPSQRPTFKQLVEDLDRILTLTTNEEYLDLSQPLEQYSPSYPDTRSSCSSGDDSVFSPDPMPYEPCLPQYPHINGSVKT
T9 sequence (Q9H792 whole entry): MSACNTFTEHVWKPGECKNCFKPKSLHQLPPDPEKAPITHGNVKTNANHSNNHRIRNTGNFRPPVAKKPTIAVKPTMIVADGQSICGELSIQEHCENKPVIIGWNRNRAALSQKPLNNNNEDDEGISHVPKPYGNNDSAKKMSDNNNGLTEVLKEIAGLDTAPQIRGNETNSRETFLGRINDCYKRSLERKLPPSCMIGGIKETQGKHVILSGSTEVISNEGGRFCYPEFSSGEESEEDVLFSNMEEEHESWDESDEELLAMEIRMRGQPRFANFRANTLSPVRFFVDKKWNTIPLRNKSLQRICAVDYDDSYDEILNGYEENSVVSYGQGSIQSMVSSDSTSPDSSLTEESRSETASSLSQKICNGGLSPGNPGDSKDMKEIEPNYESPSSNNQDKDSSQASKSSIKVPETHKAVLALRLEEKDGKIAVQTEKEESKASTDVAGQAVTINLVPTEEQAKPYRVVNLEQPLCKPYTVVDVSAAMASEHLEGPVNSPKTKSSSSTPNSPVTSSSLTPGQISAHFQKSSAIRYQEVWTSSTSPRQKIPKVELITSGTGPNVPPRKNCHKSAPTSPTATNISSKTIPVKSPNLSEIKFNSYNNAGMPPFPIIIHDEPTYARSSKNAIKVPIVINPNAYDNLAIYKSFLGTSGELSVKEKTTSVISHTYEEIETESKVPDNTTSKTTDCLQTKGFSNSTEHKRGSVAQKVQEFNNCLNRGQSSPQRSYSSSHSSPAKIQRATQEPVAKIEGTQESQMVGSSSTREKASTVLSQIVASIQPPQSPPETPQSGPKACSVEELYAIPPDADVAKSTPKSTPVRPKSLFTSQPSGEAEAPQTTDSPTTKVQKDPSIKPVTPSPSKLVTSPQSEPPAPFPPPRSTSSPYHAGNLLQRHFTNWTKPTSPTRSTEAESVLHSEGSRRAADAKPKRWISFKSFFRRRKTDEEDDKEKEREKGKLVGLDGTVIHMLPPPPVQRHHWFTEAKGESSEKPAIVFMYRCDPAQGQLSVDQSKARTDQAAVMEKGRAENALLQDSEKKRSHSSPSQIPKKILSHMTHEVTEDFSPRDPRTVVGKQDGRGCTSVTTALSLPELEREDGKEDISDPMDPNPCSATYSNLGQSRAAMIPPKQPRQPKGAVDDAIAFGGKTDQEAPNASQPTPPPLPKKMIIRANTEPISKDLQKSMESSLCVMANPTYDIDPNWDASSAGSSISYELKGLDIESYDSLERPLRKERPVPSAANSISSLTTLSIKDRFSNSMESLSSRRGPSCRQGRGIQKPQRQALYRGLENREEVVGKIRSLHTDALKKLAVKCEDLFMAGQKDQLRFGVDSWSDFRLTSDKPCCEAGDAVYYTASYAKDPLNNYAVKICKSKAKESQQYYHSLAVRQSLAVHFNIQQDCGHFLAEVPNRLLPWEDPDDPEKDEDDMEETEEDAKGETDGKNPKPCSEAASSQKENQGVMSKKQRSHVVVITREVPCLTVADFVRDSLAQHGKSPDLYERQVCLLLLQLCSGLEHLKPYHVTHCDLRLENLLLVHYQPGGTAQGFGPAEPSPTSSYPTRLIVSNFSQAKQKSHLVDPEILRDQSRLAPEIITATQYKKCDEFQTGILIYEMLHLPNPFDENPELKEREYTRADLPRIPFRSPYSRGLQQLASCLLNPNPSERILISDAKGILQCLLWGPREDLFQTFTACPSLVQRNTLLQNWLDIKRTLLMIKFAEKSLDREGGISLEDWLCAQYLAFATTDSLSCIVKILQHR

`CC(C)c1cc(-c2n[nH]c(=O)n2-c2ccc3c(ccn3C)c2)c(O)cc1O` [Ganetespib (STA9090)]: the remaining activity at 10 µM on 382 unique human kinases [1] is 78.2%; at 382 unique human kinases [2] it was 67.1%; on 382 unique human kinases [3], 79.4%.

In the case of `CC(C)c1cc(-c2n[nH]c(=O)n2-c2ccc3c(ccn3C)c2)c(O)cc1O` [Ganetespib], on TRKA-TFG (TRK-T3) (TRKA-TFG, single replicate curves), the HILLSLOPE was -1.03 and -1.06 and -1.02. Further, the IC50 on TRKA-TFG (TRK-T3) (TRKA-TFG, single replicate curves, read-out: IC50) was 328 nM and 331 nM and 326 nM; at TRKA-TFG (TRK-T3) (setting [11]), 329 nM. The inhibition at 1 µM on TRKA-TFG (TRK-T3) (read-out: % inhibition of TRKA-TFG at 1 μM, 1 μM, secondary screening) is above 80%. For the same molecule, on TRKA-TFG (TRK-T3) (read-out: % inhibition of TRKA-TFG at 10 μM, 10 μM, kinome profiling), the inhibition at 10 µM is above 85%. On 382 unique human kinases [4], the remaining activity at 10 µM stood at 21.4%. Moreover, a half-maximal response at ABL2 (EC50) required 21.1 µM. In addition, at ABL2 (HEK293, read-out: %Normalized Bret Response, ABL2 NanoBRET, HEK293, Drug Conc. 0.0001 M), the remaining activity at 100 µM came to 22.6%.

Consider `CCNC(=O)c1noc(-c2cc(C(C)C)c(O)cc2O)c1-c1ccc(CN2CCOCC2)cc1` [Luminespib (AUY-922)], for which the “% Enzyme Activity (relative to DMSO controls)” value on 382 unique human kinases [1] is given as 86.84%; at 382 unique human kinases [5], 76.27%; on 382 unique human kinases [3], 97.20%; on 382 unique human kinases [6], 72.16%; at 382 unique human kinases [7], 104.18%. The remaining activity at 10 µM on 382 unique human kinases [1] stood at 89.6%; on 382 unique human kinases [2], 84.5%; on 382 unique human kinases [5] (setting [12]), 78.4%; on 382 unique human kinases [3] it was 98.6%; on 382 unique human kinases [6] (setting [12]), 73.3%; on 382 unique human kinases [7] (setting [12]) it was 105%.

As to `CCNC(=O)c1noc(-c2cc(C(C)C)c(O)cc2O)c1-c1ccc(CN2CCOCC2)cc1` [Luminespib], the “% inhibition at 10 uM: PEAK1” value at PEAK1 (10 μM, Fig 6C median ± standard deviation (n = 2)) turned out to be 70 ± 1%. Moreover, the values for the inhibition at 10 µM on PEAK1 (setting [13]), on LCK and at FGR were above 70%, 40 ± 2% and 66 ± 1%, respectively. Also, the IC50 on TRKA-TFG (TRK-T3) (setting [11]) is above 10000 nM. Also, the “% Enzyme Activity (relative to DMSO controls)” value at 382 unique human kinases [8] was determined as 98.62%; at 382 unique human kinases [4] it was 87.82%; on 382 unique human kinases [9], 99.37%; on 382 unique human kinases [10] it was 97.60%. Also, the remaining activity at 10 µM at 382 unique human kinases [8] (setting [12]) came to 100%; on 382 unique human kinases [4], 88.1%; at 382 unique human kinases [9] (setting [12]), 102%; at 382 unique human kinases [10] (setting [12]) it was 97.9%.

As to `CCNC(=O)c1noc(-c2cc(Cl)c(O)cc2O)c1-c1ccc(OC)cc1` [VER-50589], the “% Enzyme Activity (relative to DMSO controls)” value on PEAK1 (PEAK1, 10uM, ATP 30 uM, Data 1, Data 2) was determined as 104.61%; on LCK (LCK, 10uM, ATP 15 uM, Data 1, Data 2) it was 102.22%; at FGR (FGR, 10uM, ATP 50 uM, Data 1, Data 2), 109.55%. The remaining activity at 10 µM at PEAK1 (PEAK1, 10uM, ATP 30 uM, Data 1, Data 2, read-out: % Enzyme Activity (relative to DMSO controls)) came out at 105%; on LCK (LCK, 10uM, ATP 15 uM, Data 1, Data 2, read-out: % Enzyme Activity (relative to DMSO controls)), 111%; on FGR (FGR, 10uM, ATP 50 uM, Data 1, Data 2, read-out: % Enzyme Activity (relative to DMSO controls)), 104%. For the same molecule, the inhibition at 10 µM was -5 ± 1% on PEAK1 (setting [13]), -6 ± 6% on LCK and -7 ± 4% at FGR.
